The target in one assay is T1, IL-17A : IL-17RA binding (Homo sapiens, UniProt Q16552, K93Q).
T1 construct: Name: IL-17A-Flag
Briefly: IL-17A(FLAG-tagged):IL-17RA(His-tagged) binding disruption Eu-HTRF assay, Protocol 1. Particulars: FLAG-IL-17A 2.5 nM at 2x final concentration; average if tested more than once. The gist of the method: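 IC50 came from a one-site competition fit of the acceptor/donor (665/620 nm) HTRF ratio. His-tagged IL-17RA, Eu-anti-FLAG and D2-anti-His were added after a 1 h rt compound preincubation with FLAG-tagged IL-17A dimer in PBS/0.01% Triton X-100, followed by 2 h at rt before reading.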

Assay [1] concerns IL-17A-induced G-CSF production in human normal keratinocyte (NHK). Briefly: NHK assay: IL-17A-induced G-CSF production in normal human keratinocytes. The assay is classed as cell-based. Particulars: 24 h, IL-17A 5 ng/mL, average if tested more than once. The gist of the method: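 Stimulus rhIL-17A 5 ng/mL final, premixed 1 h rt with compound; adult NHK, 5% FBS, 0.2% DMSO. Viability by CellTiter-Glo vs DMSO.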

The structures appear in SMILES notation. pIC50: −log10 of the molar value. Bounds are passed on as bounds.

As a reminder, the pIC50 is −log10 of the IC50, conventionally taken in molar units. A higher pIC50 goes with a small IC50.

T1 sequence (Q16552 with tags, fused parts or gaps K93Q): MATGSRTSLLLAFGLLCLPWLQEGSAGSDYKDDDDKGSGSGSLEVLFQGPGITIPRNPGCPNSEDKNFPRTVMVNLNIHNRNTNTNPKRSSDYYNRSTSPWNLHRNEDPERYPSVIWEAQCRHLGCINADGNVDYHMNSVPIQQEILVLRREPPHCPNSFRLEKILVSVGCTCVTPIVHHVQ

Take `CC(C)n1cccc1C(=O)N[C@H](c1nc2cc([C@@H](C)NC(=O)CCC(F)(F)F)ccc2[nH]1)C1CCC(F)(F)CC1` [Example 213, N—((S)-(4,4-Difluorocyclohexyl)(5-((R)-1-(4,4,4-trifluorobutanamido)ethyl)-1H-benzo[d]imidazol-2-yl)methyl)-1-isopropyl-1H-pyrrole-2-carboxamide]: the negative logarithm of the IC50 (pIC50) at IL-17A : IL-17RA binding was > 7.30; in assay [1] (Homo sapiens, Keratinocyte) it was > 7.30.

Regarding `Cc1c(C(=O)N[C@H](c2nc3ccc([C@@H](C)NC(=O)CCC(F)(F)F)cc3[nH]2)C2CCC(F)(F)CC2)cnn1CC(F)F` [Example 28, N—[(S)-(4,4-Difluorocyclohexyl)-[6-[(1R)-1-(4,4,4-trifluorobutanoylamino)ethyl]-1H-benzimidazol-2-yl]methyl]-1-(2,2-difluoroethyl)-5-methyl-pyrazole-4-carboxamide], the pIC50 is < 7.00 on IL-17A : IL-17RA binding and < 7.00 in assay [1] (Homo sapiens, Keratinocyte).

Consider `C[C@@H](NC(=O)CCC(F)(F)F)c1ccc2[nH]c([C@@H](NC(=O)[C@@H]3C[C@@H]3C#N)C3CCC(F)(F)CC3)nc2c1` [Example 102, cis-(1,2)-2-Cyano-N—((S)-(4,4-difluorocyclohexyl)(5-((R)-1-(4,4,4-trifluorobutanamido)ethyl)-1H-benzo[d]imidazol-2-yl)methyl)cyclopropane-1-carboxamide], for which the pIC50 was < 7.00 on IL-17A : IL-17RA binding and < 7.00 in assay [1] (Homo sapiens, Keratinocyte).

Consider `C[C@@H](NC(=O)CCC(F)(F)F)c1ccc2nc([C@@H](NC(=O)c3cnn(C)c3C(F)F)C3CCC(F)(F)CC3)[nH]c2c1` [Example 59, N—((S)-(4,4-Difluorocyclohexyl)(6-((R)-1-(4,4,4-trifluorobutanamido)ethyl)-1H-benzo[d]imidazol-2-yl)methyl)-5-(difluoromethyl)-1-methyl-1H-pyrazole-4-carboxamide], for which the negative-log IC50 (pIC50) was < 7.00 on IL-17A : IL-17RA binding and < 7.00 in assay [1] (Homo sapiens, Keratinocyte).

As to `C[C@@H](NC(=O)CCC(F)(F)F)c1ccc2nc([C@@H](NC(=O)c3cnnn3CC3CCC3)C3CCC(F)(F)CC3)[nH]c2c1` [Example 63, 1-(Cyclobutylmethyl)-N—((S)-(4,4-difluorocyclohexyl)(6-((R)-1-(4,4,4-trifluorobutanamido)ethyl)-1H-benzo[d]imidazol-2-yl)methyl)-1H-1,2,3-triazole-5-carboxamide], the pIC50 at IL-17A : IL-17RA binding is 7.00 to 7.30; in assay [1] (Homo sapiens, Keratinocyte), 7.00 to 7.30.

Take `Cc1c(C(=O)N[C@H](c2nc3cc([C@@H](C)NC(=O)CCC(F)(F)F)ccc3[nH]2)C2CCC(F)(F)CC2)cnn1CC(F)(F)F` [Example 18, N—[(S)-(4,4-Difluorocyclohexyl)-[6-[(1R)-1-(4,4,4-trifluorobutanoylamino)ethyl]-1H-benzimidazol-2-yl]methyl]-5-methyl-1-(2,2,2-trifluoroethyl)pyrazole-4-carboxamide]: the pIC50 was < 7.00 at IL-17A : IL-17RA binding and < 7.00 in assay [1] (Homo sapiens, Keratinocyte).

For the molecule `C[C@@H](NC(=O)CCC(F)(F)F)c1ccc2[nH]c([C@@H](NC(=O)[C@H]3C[C@@H]3C(F)(F)F)C3CCC(F)(F)CC3)nc2c1` (relative stereo) [Example 105, trans-(1S*,2S*)—N—((S)-(4,4-Difluorocyclohexyl)(5-((R)-1-(4,4,4-trifluorobutanamido)ethyl)-1H-benzo[d]imidazol-2-yl)methyl)-2-(trifluoromethyl)cyclopropane-1-carboxamide], the pIC50 at IL-17A : IL-17RA binding was < 7.00; in assay [1] (Homo sapiens, Keratinocyte), < 7.00.

Consider `CC(C)n1nccc1C(=O)N[C@@H](C[C@H]1CCC(F)(F)C1)c1nc2ccc([C@H](NC(=O)CC3CC(F)(F)C3)C3CC3)cc2[nH]1` [Example 236, N—((S)-1-(6-((R)-Cyclopropyl(2-(3,3-difluorocyclobutyl)acetamido)methyl)-1H-benzo[d]imidazol-2-yl)-2-((R)-3,3-difluorocyclopentyl)ethyl)-1-isopropyl-1H-pyrazole-5-carboxamide], for which the negative-log IC50 (pIC50) is < 7.00 on IL-17A : IL-17RA binding and < 7.00 in assay [1] (Homo sapiens, Keratinocyte).

With `C[C@@H](NC(=O)CCC(F)(F)F)c1ccc2[nH]c([C@@H](NC(=O)C3(C(F)(F)F)CC3)C3CCC(F)(F)CC3)nc2c1` [Example 97, N—((S)-(4,4-Difluorocyclohexyl)(5-((R)-1-(4,4,4-trifluorobutanamido)ethyl)-1H-benzo[d]imidazol-2-yl)methyl)-1-(trifluoromethyl)cyclopropane-1-carboxamide], the pIC50 was < 7.00 on IL-17A : IL-17RA binding and < 7.00 in assay [1] (Homo sapiens, Keratinocyte).

Consider `CCCC(NC(=O)CCC(F)(F)F)c1ccc2[nH]c([C@@H](NC(=O)c3ccnn3C)C3CCC(F)(F)CC3)nc2c1` (single isomer, unassigned) [Example 51, N—((S)-(4,4-Difluorocyclohexyl)(5-((R*)-1-(4,4,4-trifluorobutanamido)butyl)-1H-benzo[d]imidazol-2-yl)methyl)-1-methyl-1H-pyrazole-5-carboxamide], for which the values for the pIC50 (on IL-17A : IL-17RA binding; in assay [1]) were < 7.00 and 7.00 to 7.30, respectively.

With `CC(C)(OC[C@H](NC(=O)c1nonc1C1CC1)c1nc2cc([C@H](NC(=O)CC34CC(F)(C3)C4)C3CC3)ccc2[nH]1)C(F)(F)F` [Example 166, 4-Cyclopropyl-N—((R)-1-(5-((R)-cyclopropyl(2-(3-fluorobicyclo[1.1.1]pentan-1-yl)acetamido)methyl)-1H-benzo[d]imidazol-2-yl)-2-((1,1,1-trifluoro-2-methylpropan-2-yl)oxy)ethyl)-1,2,5-oxadiazole-3-carboxamide], the pIC50 at IL-17A : IL-17RA binding is > 7.30; in assay [1] (Homo sapiens, Keratinocyte), > 7.30.

On to `C[C@@H](NC(=O)CCC(F)(F)F)c1ccc2[nH]c([C@@H](NC(=O)c3conc3C3CC3)C3CCC(F)(F)CC3)nc2c1` [Example 209, 3-Cyclopropyl-N—((S)-(4,4-difluorocyclohexyl)(5-((R)-1-(4,4,4-trifluorobutanamido)ethyl)-1H-benzo[d]imidazol-2-yl)methyl)isoxazole-4-carboxamide], for which the pIC50 at IL-17A : IL-17RA binding is 7.00 to 7.30; in assay [1] (Homo sapiens, Keratinocyte), > 7.30.

As to `C[C@@H](NC(=O)CCC(F)(F)F)c1ccc2[nH]c([C@@H](NC(=O)c3ncnn3CCC(F)(F)F)C3CCC(F)(F)CC3)nc2c1` [Example 220, N—((S)-(4,4-Difluorocyclohexyl)(5-((R)-1-(4,4,4-trifluorobutanamido)ethyl)-1H-benzo[d]imidazol-2-yl)methyl)-1-(3,3,3-trifluoropropyl)-1H-1,2,4-triazole-5-carboxamide], the pIC50 at IL-17A : IL-17RA binding is 7.00 to 7.30; in assay [1] (Homo sapiens, Keratinocyte) it was < 7.00.

Consider `C[C@@H](NC(=O)CC(C(F)(F)F)C(F)(F)F)c1ccc2[nH]c([C@@H](NC(=O)c3cc(F)ccc3F)C3CCC(F)(F)CC3)nc2c1` [Example 130, N—((S)-(4,4-Difluorocyclohexyl)(6-((R)-1-(4,4,4-trifluoro-3-(trifluoromethyl)butanamido)ethyl)-1H-benzo[d]imidazol-2-yl)methyl)-2,5-difluorobenzamide], for which the pIC50 on IL-17A : IL-17RA binding was < 7.00; in assay [1] (Homo sapiens, Keratinocyte), < 7.00.

On to `Cc1nonc1C(=O)N[C@H](c1nc2ccc([C@H](NC(=O)CC3CC(F)(F)C3)C3CC3)cc2[nH]1)[C@H]1CCCC(F)(F)C1` [Example 247, N—((S)-(6-((R)-Cyclopropyl(2-(3,3-difluorocyclobutyl)acetamido)methyl)-1H-benzo[d]imidazol-2-yl)((S)-3,3-difluorocyclohexyl)methyl)-4-methyl-1,2,5-oxadiazole-3-carboxamide], for which the pIC50 at IL-17A : IL-17RA binding was > 7.30; in assay [1] (Homo sapiens, Keratinocyte), > 7.30.

On to `CC(C)n1nccc1C(=O)N[C@@H](CC(C)(C)C(F)F)c1nc2ccc([C@H](NC(=O)CC3CC(F)(F)C3)C3CC3)cc2[nH]1` [Example 234, N—((S)-1-(6-((R)-Cyclopropyl(2-(3,3-difluorocyclobutyl)acetamido)methyl)-1H-benzo[d]imidazol-2-yl)-4,4-difluoro-3,3-dimethylbutyl)-1-isopropyl-1H-pyrazole-5-carboxamide], for which the pIC50 was 7.00 to 7.30 at IL-17A : IL-17RA binding and 7.00 to 7.30 in assay [1] (Homo sapiens, Keratinocyte).

Take `CC(C)c1c(C(=O)NC(CC(C)(C)C(F)(F)F)c2nc3cc([C@@H](C)NC(=O)CCC(F)(F)F)ccc3[nH]2)no[n+]1[O-]` (single isomer, unassigned) [Example 56, 3-Isopropyl-4-(((S*)-4,4,4-trifluoro-3,3-dimethyl-1-(5-((R)-1-(4,4,4-trifluorobutanamido)ethyl)-1H-benzo[d]imidazol-2-yl)butyl)carbamoyl)-1,2,5-oxadiazole 2-oxide]: the pIC50 on IL-17A : IL-17RA binding was 7.00 to 7.30; in assay [1] (Homo sapiens, Keratinocyte), 7.00 to 7.30.

For `C[C@@H](NC(=O)CCC(F)(F)F)c1ccc2[nH]c([C@@H](NC(=O)c3cnn(CC(F)F)n3)C3CCC(F)(F)CC3)nc2c1` [Example 37, N—[(S)-(4,4-Difluorocyclohexyl)-[6-[(1R)-1-(4,4,4-trifluorobutanoylamino)ethyl]-1H-benzimidazol-2-yl]methyl]-2-(2,2-difluoroethyl)triazole-4-carboxamide], the pIC50 was < 7.00 on IL-17A : IL-17RA binding and < 7.00 in assay [1] (Homo sapiens, Keratinocyte).

Regarding `CC(C)(OC[C@H](NC(=O)c1nonc1OCC(F)(F)F)c1nc2cc([C@H](NC(=O)CC3CC(F)(F)C3)C3CC3)ccc2[nH]1)C(F)(F)F` [Example 267, N—((R)-1-(5-((R)-Cyclopropyl(2-(3,3-difluorocyclobutyl)acetamido)methyl)-1H-benzo[d]imidazol-2-yl)-2-((1,1,1-trifluoro-2-methylpropan-2-yl)oxy)ethyl)-4-(2,2,2-trifluoroethoxy)-1,2,5-oxadiazole-3-carboxamide], the pIC50 is > 7.30 on IL-17A : IL-17RA binding and > 7.30 in assay [1] (Homo sapiens, Keratinocyte).

For the origin of these results see US20240376085A1 (Janssen Pharmaceutica NV, priority 2021, published 2024).
